Columns and labels:
α-glucosidase = assay: In vitro α-glucosidase inhibitory assay; assay type: biochemical; details: for α-Glucosidase activity: IC50 ± SD: DF = 100, five concentrations 10, 5, 1, 0.1, 0.01 μg mL^−1
α-amylase = assay: In vitro α-amylase inhibitory assay; details: for IC50: read-out: The α-amylase activity: IC50 ± SD, DF = 100
[1] = molecular target: T1, Human PPAR-γ (Peroxisome Proliferator-Activated Receptor Gamma) (Homo sapiens, UniProt P37231); assay: In vitro PPAR-γ transactivation assay; assay type: biochemical; details: for PPAR-γ Folds: folds compared to Pioglitazone (= 1)
T1 sequence (P37231 1-505): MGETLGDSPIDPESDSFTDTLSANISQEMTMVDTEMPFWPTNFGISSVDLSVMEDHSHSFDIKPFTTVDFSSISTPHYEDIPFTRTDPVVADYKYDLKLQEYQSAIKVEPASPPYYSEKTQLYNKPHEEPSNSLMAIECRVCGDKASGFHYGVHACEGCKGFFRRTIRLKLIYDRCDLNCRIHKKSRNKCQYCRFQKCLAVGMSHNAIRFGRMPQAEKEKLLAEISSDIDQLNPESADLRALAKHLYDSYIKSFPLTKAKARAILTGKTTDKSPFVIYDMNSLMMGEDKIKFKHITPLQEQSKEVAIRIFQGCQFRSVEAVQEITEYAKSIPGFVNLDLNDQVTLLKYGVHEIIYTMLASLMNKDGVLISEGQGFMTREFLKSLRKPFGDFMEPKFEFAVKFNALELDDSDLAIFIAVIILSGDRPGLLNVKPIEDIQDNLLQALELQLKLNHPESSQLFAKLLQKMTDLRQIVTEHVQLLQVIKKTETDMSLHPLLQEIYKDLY

C[C@H]1O[C@H](O[C@H]2[C@H](O)[C@@H](O)[C@@H](O[C@H]3[C@H](O)[C@@H](O)C(O)O[C@@H]3CO)O[C@@H]2CO)[C@H](O)[C@@H](O)[C@@H]1N[C@H]1C=C(CO)[C@@H](O)[C@H](O)[C@H]1O (stereo partly drawn) [Acarbose, reference compound]
α-Glucosidase activity: Inhibitory potential at 10 μg mL^−1 (α-glucosidase): 90.1% | The α-amylase activity: Inhibitory percentage at 100 μg mL^−1 (α-amylase): 96.5%

N#Cc1cc2cc(S(N)(=O)=O)ccc2oc1=N [Compound 2, 3-Cyano-2-imino-2H-chromene-6-sulfonamide]
α-Glucosidase activity: Inhibitory potential at 10 μg mL^−1 (α-glucosidase): 90.7% | α-Glucosidase activity: IC50 ± SD (α-glucosidase): 0.548 ± 0.02 µg/mL | IC50 [1]: 12.6 µM | PPAR-γ Folds [1]: ~1.55 | The α-amylase activity: Inhibitory percentage at 100 μg mL^−1 (α-amylase): 96.1% | Increase of α-amylase inhibitory potency, fold (α-amylase; compound 2 relative to derivative 3): ~8.31 fold | IC50 (α-amylase): 1.76 ± 0.01 µM

N#CC(C#N)=C(N)c1cc2cc(S(N)(=O)=O)ccc2oc1=N [Compound 3, 3-(1-Amino-2,2-dicyanovinyl)-2-imino-2H-chromene-6-sulfonamide]
The α-amylase activity: Inhibitory percentage at 100 μg mL^−1 (α-amylase): 96% | IC50 (α-amylase): 14.6 ± 0.16 µM

CC(=O)c1cc2cc(S(N)(=O)=O)ccc2oc1=O [Compound 4, 3-Acetyl-2-oxo-2H-chromene-6-sulfonamide]
The α-amylase activity: Inhibitory percentage at 100 μg mL^−1 (α-amylase): 94.2% | IC50 (α-amylase): 8.55 ± 0.31 µM

CCOC(=O)c1cc2cc(S(N)(=O)=O)ccc2oc1=O [Compound 5, Ethyl 2-oxo-6-sulfamoyl-2H-chromene-3-carboxylate]
The α-amylase activity: Inhibitory percentage at 100 μg mL^−1 (α-amylase): 93.4% | IC50 (α-amylase): 32.6 ± 0.33 µM

NS(=O)(=O)c1ccc2oc(=O)c(C(=O)Nc3ccc(F)cc3)cc2c1 [Compound 6, N-(4-fluorophenyl)-2-oxo-6-sulfamoyl-2H-chromene-3-carboxamide]
The α-amylase activity: Inhibitory percentage at 100 μg mL^−1 (α-amylase): 95.4% | IC50 (α-amylase): 2.11 ± 0.03 µM

NS(=O)(=O)c1ccc2oc(=O)c(C(=O)Nc3cccc(C(F)(F)F)c3)cc2c1 [Compound 7, 2-Oxo-6-sulfamoyl-N-(3-(trifluoromethyl)phenyl)-2H-chromene-3-carboxamide]
The α-amylase activity: Inhibitory percentage at 100 μg mL^−1 (α-amylase): 96.2% | IC50 (α-amylase): 4.39 ± 0.06 µM

NS(=O)(=O)c1ccc2oc(=O)c(C(=O)Nc3ccc(Cl)cc3)cc2c1 [Compound 8, N-(4-chlorophenyl)-2-oxo-6-sulfamoyl-2H-chromene-3-carboxamide]
The α-amylase activity: Inhibitory percentage at 100 μg mL^−1 (α-amylase): 95.4% | IC50 (α-amylase): 4.23 ± 0.06 µM

CCOC(=O)c1ccc(NC(=O)c2cc3cc(S(N)(=O)=O)ccc3oc2=O)cc1 [Compound 9, Ethyl 4-(2-oxo-6-sulfamoyl-2H-chromene-3-carboxamido)benzoate]
α-Glucosidase activity: Inhibitory potential at 10 μg mL^−1 (α-glucosidase): 83.8% | α-Glucosidase activity: IC50 ± SD (α-glucosidase): 2.44 ± 0.09 µg/mL | IC50 [1]: 8.9 µM | PPAR-γ Folds [1]: ~1.32 | The α-amylase activity: Inhibitory percentage at 100 μg mL^−1 (α-amylase): 96.6% | IC50 (α-amylase): 1.08 ± 0.02 µM
